Results taken from article PMC5773572, “High-throughput analysis using non-depletive SPME: challenges and applications to the determination of free and total concentrations in small sample volumes” (Scientific Reports, 2018).

Key:
plasma proteins = conditions: value reported in the literature, used to calculate the expected free amount; cited from earlier work
5% calf serum in PBS [1] = experiment: Protein binding by high-throughput SPME fiber method in 5% calf serum in PBS
Description: The SPME experimental workflow consisted of five major steps. First, prior to extraction, fibers were conditioned in 100 µL of desorption solution ACN/H2O (80/20, v/v), which was acidified to contain 0.1% (v/v) formic acid. The second step, occurring prior to extraction, involved submersing the fiber in 100 µL of ultrapure water to remove traces of solvent from the extraction phase. This step was performed for 10 seconds using 100 rpm agitation, with water temperature set to 37 °C in order to avoid a temperature gradient between the fiber and the sample, as this could influence the initial uptake of analytes. […] This step was critical, as it ensured that there were no traces of binding components remaining on the coating that could interfere with the quantitation of analytes extracted by the SPME fiber. […]
(§1) The reliability of the new fiber-based SPME high-throughput method was tested by applying it to the determination of the protein binding (PB) percentages of the selected analytes. […] The protein binding of each compound was calculated using the slope ratios of the linear portions of the calibration curves. […]
The developed SPME method was further evaluated using a matrix consisted of 5% CS in PBS to mimic conditions typically used in in vitro cell assay applications. […]

5% calf serum in PBS [2] = experiment: Protein binding by rapid equilibrium dialysis (RED) in 5% calf serum; assay type: in vitro ADME; conditions: 8K MWCO
Description: Equipments. […] Impact™ protein precipitation plates were purchased from Phenomenex (Torrance, CA, USA). Sample preparation for RED. […] RED protocol. […] Aliquots (400µL) of the spiked treatment medium solutions were added to the donor wells followed by the addition of600µL of blank medium to the acceptor cells. […] The experiment was performed in triplicate for all compounds and concentrations.

calf serum (CS) = experiment: Protein binding by ultra-thin coated HLB fiber SPME, slope ratio of calibrations in PBS vs 100% calf serum; conditions: 100% calf serum vs PBS pH 7.4; fiber SPME, 5 min extraction, 37 °C, 100 µL sample
Description: (§2) The SPME experimental workflow consisted of five major steps. First, prior to extraction, fibers were conditioned in 100 µL of desorption solution ACN/H2O (80/20, v/v), which was acidified to contain 0.1% (v/v) formic acid. The second step, occurring prior to extraction, involved submersing the fiber in 100 µL of ultrapure water to remove traces of solvent from the extraction phase. This step was performed for 10 seconds using 100 rpm agitation, with water temperature set to 37 °C in order to avoid a temperature gradient between the fiber and the sample, as this could influence the initial uptake of analytes. Following, extraction was performed on 100 µL of sample for 5 min, with samples thermostated to 37 °C, using 100 rpm agitation, prior to extraction. The fourth step consisted of a second rinsing of the fiber with 100 µL of water for 10 seconds to remove matrix components from the fiber. This step was critical, as it ensured that there were no traces of binding components remaining on the coating that could interfere with the quantitation of analytes extracted by the SPME fiber. […]
as §1

[3] = as above; conditions: bovine (calf), 100% calf serum, pH 7.4
Description: as §2, §1

**Q.** What does the source list for `CN1CCCC1c1cccnc1` (racemic) [Nicotine, (±) nicotine]?
**A.** Protein binding (plasma proteins): <10%; PB values in 5% CS (SPME) (5% calf serum in PBS [1]): 8%; binding values in 5% CS (RED) (5% calf serum in PBS [2]): < 10%

**Q.** Which “PB values in 5% CS (SPME)” value (5% calf serum in PBS [1]) does the source give for `CCN(CC)C(=O)c1cccc(C)c1` [DEET, N,N-Diethyl-meta-toluamide] here?
**A.** 38%

**Q.** And the “protein binding (PB)” value (calf serum (CS))?
**A.** 71%

**Q.** And the “binding values in 5% CS (RED)” value (5% calf serum in PBS [2])?
**A.** < 10%

**Q.** Which results are given for `O=C(O)Cc1ccccc1Nc1c(Cl)cccc1Cl` [Diclofenac, diclofenac]?
**A.** fraction unbound at 5 min [3]: 0.02; binding values in 5% CS (RED) (5% calf serum in PBS [2]): 91%
